Literature values in patent US5627200A, “β3 -Adrenoceptor agonists and antagonists for the treatment of intestinal motility disorders, depression, prostate disease and dyslipidemia” (Pfizer Inc, priority 1994, dated 1997).

Columns and labels:
[1] = system: rodent models of depression; conditions: reported in Europ. J. Pharm., 219, 193 (1992)
[2] = system: genetic animal models of obesity and diabetes

Row | Structure (SMILES) | activity in rodent models of depression [1] | plasma fatty acids [2] | plasma triglycerides [2]
1 | CCOC(=O)COc1ccc2c(c1)C[C@@H](NC[C@H](O)c1cccc(Cl)c1)CC2.Cl [N-[(2S)-7-carbethoxymethoxy-1,2,3,4-tetrahydronaphth-2-yl]-(2R)-2-hydroxy-2-(3-chlorophenyl)-ethanamine hydrochloride] | demonstrate activity in rodent models of depression |  | 
2 | COC(=O)COc1ccc(CC(C)NCC(O)c2cccc(Cl)c2)cc1 (stereo not drawn) [N-[2-(4-carbomethoxymethoxyphenyl)-1-methylethyl]-2-hydroxy-2-(3-chlorophenyl)ethanamine] |  | reduces | reduces
